Like-named read-outs stand apart in the source and are kept apart here.
Tests used:
[1] = cited from earlier work
Male DBA/2J mice [2] = test: Prepulse inhibition (PPI) model, Compound A alone; format: in vivo, mouse; settings: Compound A alone at 0.01, 0.1 and 1.0 mg/kg i.p., 30 min before testing; FIG. 1
From the text: Dysfunctions of sensory gating and information processing have been putatively associated with clinical features such as perpetual aberrations, hallucinations and distraction and been considered as potential precursors of sensory overload, cognitive fragmentation and disorganization. Among the physiological measures, one approach has involved the startle reflex with the prepulse inhibition (PPI) paradigm. […] PPI refers to a reduction in the acoustic startle reflex to a loud noise when the loud noise is preceded by a weak auditory stimulus. At short lead intervals, this has the effect of markedly reducing or gating the amplitude of the startle response and increasing its latency. Disruption of PPI occurs with agonists of dopamine and serotonin, and with glutamate/N-methyl D aspartate (NMDA) receptor antagonists, or can be induced by genetic (e.g., DBA2 mouse strain) and experimental manipulations (e.g., rearing rats in isolation, neurotoxic lesions, or other methods). […] (Olivier B., et al., Psychopharmacology (2001) vol. 156:284-290; Ouagazzal A-M., Psychopharmacology (2001) vol. 156:273-283; Simosky J. K., Psychopharmacology (2003) vol. 165:386-396). […]
Animals: Male DBA/2J mice (Jackson Labs AX9 facility, Bar Harbor, Me., USA) at age 6-8 weeks old were used. […] Experimental Procedure: Startle response and PPI were measured using startle chambers from Hamilton Kinder (Poway, Calif., USA). […]

Male DBA/2J mice [3] = test: Prepulse inhibition (PPI) model, Compound A on a subefficacious dose of risperidone; format: in vivo, mouse; settings: FIG. 2
Description: Animals: Male DBA/2J mice (Jackson Labs AX9 facility, Bar Harbor, Me., USA) at age 6-8 weeks old were used. They were housed under standard facility conditions in groups of eight on a 12 h light/dark cycle (lights on at 0600 h) with ad libitum access to food and water. Chemicals: 2-{4′-[(3aR,6aR)-5-Methylhexahydropyrrolo[3,4-b]pyrrol-1(2H)-yl]-1,1′-biphenyl-4-yl}pyridazin-3(2H)-one was prepared at Abbott Laboratories; risperidone (3-[2-[4-(6-fluoro-1,2-benzisoxazol-3-yl)-1-piperidinyl]ethyl]-6,7,8,9-tetrahydro-2-methyl-4H-pyridol[1,2-a]pyrimidin-4-one, MW 410.5) was obtained from ICN Biomedicals Inc. (Aurora, Ohio, USA). […] Experimental Procedure: Startle response and PPI were measured using startle chambers from Hamilton Kinder (Poway, Calif., USA). […] In the startle alone trials, the amount of PPI was calculated as a percentage score for each acoustic prepulse trial type using (typically) the formula: […]. Statistics: Data were analyzed using a one-way ANOVA. All post hoc significance was determined using Dunnett's multiple comparison test (p<0.05 was regarded as significance). […]
Statistics: Data were analyzed using a one-way ANOVA. All post hoc significance was determined using Dunnett's multiple comparison test (p<0.05 was regarded as significance).

Male Sprague Dawley rats = test: Catalepsy (bar test), Compound A in combination with risperidone; format: in vivo, rat; settings: Compound A 0.1 or 1.0 mg/kg i.p. 10 min prior to risperidone 2.5 mg/kg i.p.; total catalepsy over 60-240 min; FIG. 3
Description: Animals: Male Sprague Dawley rats (CRL: CD (SD), Charles River Laboratories, Omaha, Nebr., USA) weighing 300-325 g were used for the experiment. They were housed under standard conditions in groups of 4 rats on a 12 h light/dark cycle (lights on at 0600 h) with ad libitum access to food and water. Preparation of Compounds: 2-{4′-[(3aR,6aR)-5-Methylhexahydropyrrolo[3,4-b]pyrrol-1(2H)-yl]-1,1′-biphenyl-4-yl}pyridazin-3(2H)-one (Compound A) and risperidone were solubilized as described above, and were administered in solution in a volume of 1.0 ml/kg body weight. Experimental Procedure: Rats were handled and habituated to the testing room before starting. […] The degree of catalepsy was measured by gently placing both forepaws over a metal bar (1.1 cm. diameter suspended 8 cm. above the table top). The time in seconds until the rat took both paws off the bar was recorded, with a maximum cut-off of 300 seconds. […] At least 5 trials were attempted on each rat with 5 seconds used as a low-end cut-off for catalepsy (time scored as zero). For catalepsy times between 5-15 seconds, the highest time of 5 trials was recorded. Alternately, any catalepsy trial time that was greater than 15 seconds (up to 300 seconds) was recorded. Statistics: Data for the 4 times points were summed across the session, and the total catalepsy scores were analyzed using a one-way analysis of variance (ANOVA). […]

[4] = clinical use, Table 1, hyperprolactinaemia
[5] = clinical use, Table 1, sexual dysfunction

SMILES: O=C1CCc2ccc(OCCCCN3CCN(c4cccc(Cl)c4Cl)CC3)cc2N1 [Arpiprazole]
- Dose of Increased Side Effect Risk (somnolence), in words ([1]; Table 2): dose dependent
- Other Dose Related Side Effects ([1]; clinical use, Table 1): somnolence

SMILES: CN1CCN(C2=Nc3cc(Cl)ccc3Nc3ccccc32)CC1 [Clozapine, 8-chloro-11-(4-methyl-1-piperazinyl)-5H-dibenzo[b,e][1,4]diazepine]
- Dose of Increased Side Effect Risk (low risk for seizures) ([1]; Table 2): <300 mg/day
- Dose of Increased Side Effect Risk (moderate risk for seizures) ([1]; Table 2): 300 to 599 mg/day

SMILES: CN1C[C@H]2CCN(c3ccc(-c4ccc(-n5ncccc5=O)cc4)cc3)[C@H]2C1 [Compound A, 2-{4′-[(3aR,6aR)-5-methylhexahydropyrrolo[3,4-b]pyrrol-1(2H)-yl]-1,1′-biphenyl-4-yl}pyridazin-3(2H)-one]
- PPI responding (Male DBA/2J mice [2]): did not significantly alter PPI responding
- efficacy of risperidone (0.1 mg/kg) in PPI in combination with 0.1 mg/kg Compound A (Male DBA/2J mice [3]; 0.1 mg/kg Compound A + 0.1 mg/kg risperidone, comparable to 1.0 mg/kg risperidone): attained maximal efficacy
- efficacy of risperidone (0.1 mg/kg) in PPI in the presence of Compound A (Male DBA/2J mice [3]; Compound A 0.01, 0.1 or 1.0 mg/kg i.p. 35 min, risperidone 0.1 mg/kg 25 min prior to testing): more efficacious
- cataleptic behavior of risperidone when administered in combination (Male Sprague Dawley rats): did not significantly alter cataleptic behavior

SMILES: O=C(CCCN1CCC(O)(c2ccc(Cl)cc2)CC1)c1ccc(F)cc1 [Haloperidol, 4-(4-chlorophenyl)-1-[4-(4-fluorophenyl)-4-oxobutyl]-4 piperidinyl]
- Dose of Increased Side Effect Risk ([1]; Table 2, risk for EPS): ~3 mg
- Other Dose Related Side Effects [1, 4]: hyper-
- Other Dose Related Side Effects [1, 5]: sexual

SMILES: Cc1nc2n(c(=O)c1CCN1CCC(c3noc4cc(F)ccc34)CC1)CCCC2 [Risperidone, 3-[2-[4-(6-fluoro-1,2-benzisoxazol-3-yl)piperidino]ethyl]-2-methyl-6,7,8,9-tetrahydro-4H-pyrido-[1,2-a]pyrimidin-4-one]
- Dose of Increased Side Effect Risk (EPS risk) ([1]; Table 2): ≧6 mg/day
- Other Dose Related Side Effects [1, 4]: hyper-
- Other Dose Related Side Effects [1, 5]: sexual

SMILES: O=C1Cc2cc(CCN3CCN(c4nsc5ccccc45)CC3)c(Cl)cc2N1 [Ziprasidone, 5-[2-[4-(1,2-benzoisothiazol-3-yl)-1-piperazinyl]ethyl]-6-chloro-1,3-dihydro-2H-indol-2-one]
- Dose of Increased Side Effect Risk (EPS risk) ([1]; Table 2): >80 mg/day
- EPS risk: dose of augmented risk ([1]; clinical use, Table 1): risk >80 mg/kg/day
